Columns and labels:
[1] = test system: human glioblastoma multiforme cell lines (U87, T98G, M059K and LN-18); test: MTT cell viability assay, chemiluminescent compound plus photosensitizer (FIG. 3); format: cell-based
Method: (§1) The efficacy of the chemiluminescent compounds DZ325 and EK297 was tested in cell cultures of human glioblastoma multiforme cell lines (U87, T98G, M059K and LN-18).
(§2) The cells were inoculated in 96-well plates and left to attach overnight at 37° C. in a 5% CO2, humidified atmosphere. Subsequently the cells were incubated with (i) the photosensitizer (cercosporin) or the photosensitizer precursor (5-ALA, for the generation of the photosensitizer PpIX); and (ii) the compound at the appropriate concentration. In the case of 5-ALA, its introduction to the cell culture preceded that of the chemiluminescent compound by 1 hour to ensure adequate PpIX production. In the case of cercosporin, it was administered at the same time as the chemiluminescent compound.
The chemiluminescent compounds were prepared as 50 mM stock solutions in DMSO (or 1-methyl-2-pyrrolidone) and diluted in cell media to their final concentrations. Cercosporin was prepared as a 4 mM solution in DMSO and appropriately diluted in cell media. 5-ALA was made to its final concentration in Optimem. In the case of the luminol-based compound (DZ325), Cu was in some cases added to the cell media in the form of CuSO4 at a final concentration of 100 μM.
(§3) 24 hours from the introduction of the chemiluminescent compounds to the cells, the cell media was removed and replaced with 100 μL of media containing 0.5 mg/mL thiazolyl blue salts for the performance of a standard MTT viability assay. The MTT containing medium was left to incubate for 1 to 3 hours and then removed and replaced with 100 μL DMSO. The endpoint absorbance measurement was made at 561 nm. Media only controls were used as 100% cell viability controls. The experimental cell viability of the combined treatment (photosensitizer+chemiluminescent compound) was compared to the theoretical additive treatment of the photosensitizer+chemiluminescent compound which was calculated as follows:
In each figure, one example of synergy is highlighted. […] Calculated cell viability is determined according to the following equation (in which “PS”=photosensitizer; “CL”=chemiluminescent agent): […]

[2] = test system: M059K cells; test: MTT cell viability assay, DZ325 + cercosporin (FIG. 2); format: cell-based, human
Method: FIG. 2—Cell viability of M059K cells: Compound DZ325+cercosporin.
as §1
as §2, with “compound. […]” for “compound.”
as §3, with “The MTT containing medium was left to incubate for 1 to 3 hours and then removed and replaced with 100 μL DMSO.” left out, “Media only controls were used as 100% cell viability controls.” left out, “follows: […]” for “follows:”

[3] = test system: LN18 cells; test: MTT cell viability assay, DZ325 + cercosporin (FIG. 1); format: cell-based, human
Method: FIG. 1—Cell viability of LN18 cells: Compound DZ325+cercosporin.
as §1
as §2, with “compound. […]” for “compound.”
as §3, with “The MTT containing medium was left to incubate for 1 to 3 hours and then removed and replaced with 100 μL DMSO.” left out, “Media only controls were used as 100% cell viability controls.” left out, “follows: […]” for “follows:”

`COc1c(CC(C)O)c2c3c(CC(C)O)c(OC)c(=O)c4c(O)cc5c(c6c(cc(O)c(c1=O)c62)OCO5)c43` (stereo not shown) [cercosporin, reference compound] gave a viability at 3 µM ([1]; Homo sapiens, 24 h, read-out: cell viability) of 80%.

For `Cc1ccc(S(=O)(=O)N2CCN(C(=O)c3cc(Br)c(OC(=O)c4c5ccccc5[n+](C)c5ccccc45)c(Br)c3)CC2)cc1.O=S(=O)([O-])C(F)(F)F` [EK297, 9-((2,6-dibromo-4-(4-tosylpiperazine-1-carbonyl)phenoxy)carbonyl)-10-methylacridin-10-ium trifluoromethanesulfonate], the “experimental cell viability of combined treatment” value ([1]; 3 μM cercosporin+400 μM EK297, MTT 24 hours, FIG. 3) was 21.5%, the “calculated cell viability (theoretical additive)” value ([1]; 3 μM cercosporin+400 μM EK297, calculated from single-agent viabilities) was 59.5% and the “synergy between chemiluminescent compound and photosensitizer” value ([1]; EK297 with cercosporin, experimental vs calculated viability) was “cytotoxic synergy”. It also gave a viability at 400 µM ([1]; Homo sapiens, 400 μM EK297 alone, MTT 24 hours, FIG. 3, cell line not stated, read-out: cell viability (printed as 'toxicity')) of 74.5%.

With `Cc1ccc(S(=O)(=O)NCCCNc2cccc3c(=O)[nH][nH]c(=O)c23)cc1` [DZ325, N-(3-((1,4-dioxo-1,2,3,4-tetrahydrophthalazin-5-yl)amino)propyl)-4-methylbenzenesulfonamide] the “synergy between chemiluminescent compound and photosensitizer” value [2] was “synergy” and the “synergy between chemiluminescent compound and photosensitizer” value [3] was “synergy”.
